Assay results published in publication PMC5940854, “Nitrothiophene carboxamides, a novel narrow spectrum antibacterial series: Mechanism of action and Efficacy” (Scientific Reports, 2018).
In brackets after ≈: the same amount, converted by molar mass.

Tests used:
E. coli ∆tolC JW5503-1 = assay: MIC, E. coli ∆tolC; format: cell-based; settings: Escherichia coli, read-out: MIC tolC
Description: (§1) The inoculum used for all the experiments is derived from a single seed lot that is maintained as glycerol stocks at −80 °C and are sub cultured on LB plate for isolated colonies. Single colony of each strain is grown in M9 medium. All test compound stocks and dilutions are prepared in DMSO. Serial two-fold dilutions of compounds are prepared separately, with the concentrations ranging from 2 mg/mL to 0.015 mg/mL. To 150 µl (3–7 × 10^5 CFU/ml) of bacterial culture in 96 well microtitre plates, 3 μL compound from each of the dilutions is added to respective wells to obtain final concentrations ranging from 40 µg/mL to 0.3 µg/mL of the test compounds. Media control, culture control and appropriate reference drug controls are included. […] Growth is monitored by checking absorbance at 600 nm (A600). […] The samples from MIC and above concentrations are plated for MBC (Minimum Bactericidal Concentration). The samples are diluted 1:10 and plated on LB agar plates. […] The killing kinetics is determined by enumerating survivors at various time points following compound exposure. E. coli cells (~10^7 CFU/ml; A600 of 0.1) are treated with various concentrations (40 µg/mL to 0.3 µg/mL) of compounds in a 96-well microtitre plate. At various time intervals (0 to 8 h), 30 μl volumes of treated cultures are serially diluted and plated on LB agar plates. […] Data is expressed as the log10 CFU for each drug treatment.

E. coli ∆nfsA + ∆nfsB = assay: microbe, parasite or virus in culture; format: cell-based; settings: for MIC: Escherichia coli, read-out: MIC ∆nfsA + ∆nfsB; for antibacterial activity in double knockout (in words): ΔnfsA and ΔnfsB double knockout strain
Description: (§2) To assess the biological relevance of the interacting protein and establish the link between nitroreductases to the antibacterial activity of NTC compounds, single (ΔnfsA or ΔnfsB) and double knockouts (ΔnfsA & ΔnfsB) of nitroreductases were generated by phage transduction using strains from the Keio collection.
as §1

E. coli ∆nfsA = assay: microbe, parasite or virus in culture; format: cell-based; settings: Escherichia coli, read-out: MIC ∆nfsA
Description: as §2, §1

NfsA = biological target: T1, NfsA (Escherichia coli, UniProt P17117); assay: Nitroreductase activity assay, NfsA; format: biochemical, E. coli; settings: 20 μM compound, 40 μM NADPH, 10 nM NfsA; slope of initial velocity
T1 construct: His-tag; made in house; host or cells: E. coli BL21(DE3), pET28a (pET-nfsA)
T1 sequence (P17117 whole entry): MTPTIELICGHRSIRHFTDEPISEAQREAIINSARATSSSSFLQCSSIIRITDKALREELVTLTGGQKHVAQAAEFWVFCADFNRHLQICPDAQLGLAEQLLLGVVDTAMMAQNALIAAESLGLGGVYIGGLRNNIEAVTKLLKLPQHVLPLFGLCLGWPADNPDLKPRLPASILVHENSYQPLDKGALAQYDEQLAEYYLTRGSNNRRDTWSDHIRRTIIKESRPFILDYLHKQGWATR
Description: Enzyme reducing each of the substrates are measured by monitoring the concomitant oxidation of NADPH by NfsA and NADH by NfsB in a fluorescence based assay. The reduction in fluorescence due to the NADH oxidation (excitation 350 nm, emission 460 nm) and NADPH oxidation (excitation 340 nm, emission 485 nm) is recorded using a TECAN Infinite M200Pro spectrophotometer, in half area solid black microtiter plates. This change in fluorescence directly corelates to the reduction of the nitro-compounds in the reaction. The NfsA assays is performed by initiating the reactions with 40 μM NADPH and 10 nM NfsA in 50 mM Tris-HCl (pH 7.4), 5 mM EDTA against 20 μM substrate (5 μl of compounds/substrate dissolved in 100% DMSO) in a total reaction volume of 100 μl at 25 °C. Similarly, the NfsB assay is also performed by initiating the reactions with 40 μM NADH and 70 nM NfsB in 50 mM Tris-HCl (pH 7.4), 5 mM EDTA against 20 μM substrate in a total reaction volume of 100 μl. […] All reactions are performed in replicates of two or more and the fluorescence measurements are made at 10 second intervals for 5–10 minutes.
Low solubility of the compounds/substrates under the NfsA and NfsB assay conditions precluded determination of their Km. […] The relative fluorescence units (RFU) obtained due to NADPH (excitation 340 nm, emission 485 nm) or NADH (excitation 350 nm, emission 460 nm) oxidation of the first 90 sec reaction is used to compute the slopes using linear regression analysis on GraphPad Prism. Appropriate blank reactions are included to account for background fluorescence/quenching from each of the components such as DMSO, the compound itself and auto-oxidation of NADPH or NADH. Activity of NfsB with a known substrate such as nitrofurantoin is used as a benchmark to plot the relative activities with all the test compounds.

ATCC25922 = assay: MIC on E. coli ATCC25922; format: cell-based; settings: strain ATCC25922
Description: as §1

Cytotoxicity, MTS assay = format: cell-based; settings: human, A549 cells
Description: Cytotoxicity of the compounds was evaluated using MTS ((3-(4,5-dimethylthiazol-2-yl)-5-(3-carboxymethoxyphenyl)-2-(4-sulfophenyl)-2H-tetrazolium)) assay. A-549 cells were seeded in a 96 well plate at a density if 1.5 × 10^4 cells/well (100 μL). The cells were cultured in a CO2 incubator at 37 °C. A ten point concentration curve was set up starting from 5 nM to 100 μM with 3 fold dilution along with positive, negative and blank controls. The final concentration of DMSO was maintained at 1% throughout the plate. The compound treatment was carried out for 24 hrs. After incubation MTS reagent was added followed by 30 min incubation. The absorbance was measured at 490 nm. Data analysis was done using GraphPad Prism 6.0.

Structure (SMILES) | MIC (E. coli ∆tolC JW5503-1) [µg/mL] | MIC (E. coli ∆nfsA + ∆nfsB) [µg/mL] | MIC (E. coli ∆nfsA) [µg/mL] | NfsA activity (rate of compound conversion) (NfsA) [µM/min] | MIC (ATCC25922) [µg/mL] | IC50 at 24 h (Cytotoxicity, MTS assay) [µg/mL] | antibacterial activity in double knockout (in words) (E. coli ∆nfsA + ∆nfsB) | fold elevation of MIC in the double knockout (E. coli ∆nfsA + ∆nfsB; ∆nfsA & ∆nfsB vs WT)
Cc1sc(NC(=O)c2ccc([N+](=O)[O-])s2)nc1-c1ccccc1 [compound 7, N-(5-Methyl-4-phenylthiazol-2-yl)-5-nitrothiophene-2-carboxamide] | 1.25 (≈ 3.62 µM) | > 40 | > 40 | 0.64 | – | – | – | –
O=C(Nc1nc(-c2ccc(F)cc2F)cs1)c1ccc([N+](=O)[O-])s1 [compound 12, N-(4-(2,4-difluorophenyl)thiazol-2-yl)-5-nitrothiophene-2-carboxamide] | 0.15 (≈ 0.408 µM) | > 40 | 0.6 (≈ 1.63 µM) | 2.30 | 1 (≈ 2.72 µM) | 16.9 (≈ 46 µM) | completely inactive | –
O=C(Nc1nc(-c2ccc(F)cc2)cs1)c1ccc([N+](=O)[O-])s1 [compound 15, N-(4-(4-Fluorophenyl)thiazol-2-yl)-5-nitrothiophene-2-carboxamide] | 0.6 (≈ 1.72 µM) | > 40 | 0.6 (≈ 1.72 µM) | 2.05 | 1.25 (≈ 3.58 µM) | 10.2 (≈ 29.2 µM) | completely inactive | –
COc1cc(-c2csc(NC(=O)c3ccc([N+](=O)[O-])s3)n2)ccc1Cl [compound 20, N-(4-(4-chloro-3-methoxyphenyl)thiazol-2-yl)-5-nitrothiophene-2-carboxamide] | 0.3 (≈ 0.758 µM) | > 40 | 0.6 (≈ 1.52 µM) | 0.61 | 2 (≈ 5.05 µM) | 8.3 (≈ 21 µM) | completely inactive | –
O=C1CN(/N=C/c2ccc([N+](=O)[O-])o2)C(=O)N1 [nitrofurantoin, reference compound] | – | 20 | 5 (≈ 21 µM) | 3.58 | 20 (≈ 84 µM) | – | – | about 8 fold
